T1: GST-ASPG (human ASPG, 60 kDa Lysophospholipase) (Homo sapiens, UniProt Q86U10)
T1 construct: full-length cDNA in pGEX-4T3, N-terminal GST tag kept, E. coli BL21, glutathione Sepharose
T1 sequence (Q86U10 1-573): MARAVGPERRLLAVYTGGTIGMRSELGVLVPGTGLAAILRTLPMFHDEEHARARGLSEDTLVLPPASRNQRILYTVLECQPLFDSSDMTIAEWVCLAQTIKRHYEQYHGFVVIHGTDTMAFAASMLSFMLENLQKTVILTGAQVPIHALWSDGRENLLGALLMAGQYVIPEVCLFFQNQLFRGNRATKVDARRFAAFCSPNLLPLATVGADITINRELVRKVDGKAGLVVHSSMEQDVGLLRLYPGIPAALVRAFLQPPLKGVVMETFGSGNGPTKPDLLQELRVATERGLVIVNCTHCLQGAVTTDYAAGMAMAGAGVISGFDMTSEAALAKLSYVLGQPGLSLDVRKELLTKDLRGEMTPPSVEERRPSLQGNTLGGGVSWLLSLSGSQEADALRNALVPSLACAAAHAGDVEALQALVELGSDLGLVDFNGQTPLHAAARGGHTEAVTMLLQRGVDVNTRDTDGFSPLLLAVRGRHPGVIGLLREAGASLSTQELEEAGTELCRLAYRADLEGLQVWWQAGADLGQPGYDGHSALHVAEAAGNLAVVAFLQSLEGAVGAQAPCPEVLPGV


Experiments:
[1] = target: T1, GST-ASPG (human ASPG, 60 kDa Lysophospholipase); test: Nessler ammonia assay, steady-state inhibition kinetics; assay type: biochemical
[2] = target: T1, GST-ASPG (human ASPG, 60 kDa Lysophospholipase); test: PAF acetylhydrolase assay kit (2-thio PAF, DTNB, […] nm); assay type: biochemical; conditions: 200 µM 2-thio-PAF, Tris/HCl pH 7.2, 10 min pre-incubation
[3] = substrate: NC(=O)C[C@H](N)C(=O)O; test: Nessler ammonia assay, Hill fit; assay type: biochemical, Homo sapiens; conditions: Tris/HCl pH 8.6, 37 °C, 30 min, 3-39 mM substrate, sigmoidal kinetics, Hill slope 6.9

Molecule	Ki [1] [mM]	residual PAF-AH activity at 40 and 200 mM [2]	K0.5 [3] [mM]
NC(=O)C[C@@H](N)C(=O)O [D-asparagine]	71	PAF-AH activity of GST-ASPG was also significantly inhibited by D-asparagine	–
GST-ASPG (human ASPG, 60 kDa Lysophospholipase) (Homo sapiens) (protein, full-length cDNA in pGEX-4T3, N-terminal GST tag kept, E. coli BL21, glutathione Sepharose) MARAVGPERRLLAVYTGGTIGMRSELGVLVPGTGLAAILRTLPMFHDEEHARARGLSEDTLVLPPASRNQRILYTVLECQPLFDSSDMTIAEWVCLAQTIKRHYEQYHGFVVIHGTDTMAFAASMLSFMLENLQKTVILTGAQVPIHALWSDGRENLLGALLMAGQYVIPEVCLFFQNQLFRGNRATKVDARRFAAFCSPNLLPLATVGADITINRELVRKVDGKAGLVVHSSMEQDVGLLRLYPGIPAALVRAFLQPPLKGVVMETFGSGNGPTKPDLLQELRVATERGLVIVNCTHCLQGAVTTDYAAGMAMAGAGVISGFDMTSEAALAKLSYVLGQPGLSLDVRKELLTKDLRGEMTPPSVEERRPSLQGNTLGGGVSWLLSLSGSQEADALRNALVPSLACAAAHAGDVEALQALVELGSDLGLVDFNGQTPLHAAARGGHTEAVTMLLQRGVDVNTRDTDGFSPLLLAVRGRHPGVIGLLREAGASLSTQELEEAGTELCRLAYRADLEGLQVWWQAGADLGQPGYDGHSALHVAEAAGNLAVVAFLQSLEGAVGAQAPCPEVLPGV	–	–	13
